# According to patent US20260217699A1, “BERBERINE TAUROURSODEOXYCHOLATE COMPOSITIONS AND METHODS THEREOF” (SHENZHEN HIGHTIDE BIOPHARMACEUTICAL LTD., priority 2023, published 2026):
# Test system: tyrosine hydroxylase (TH)-positive cells
# Test: Immunofluorescence staining of TH in Str and SN brain regions
# Type: in vivo, Sprague-Dawley rats
# Settings: Mean ± SEM, N=15; for TH staining SN positive cells num.: Model 0.9 ± 0.5; for TH staining Str Fluorescence intensity: Model 11.1 ± 3.0
# Protocol: After the rat was anesthetized, the abdominal cavity and thorax were cut open with straight scissors to expose the heart. The blood was first flushed out with normal saline perfusion, and then paraformaldehyde was used for initial perfusion fixation. The head was cut off, and the brain case was carefully opened with tweezers, and the brain tissue was removed and placed in paraformaldehyde solution and fix for 24 h; on the second day, took out the brain tissue and placed in 20% sucrose solution for 24 h; on the third day, took out the brain tissue and placed in 30% sucrose solution for 24 h; on the fourth day, took out the brain tissue and placed in 35% sucrose solution for 24 h (increase the time or concentration appropriately according to the condition of sugar deposition in the brain tissues); took out the brain tissue, embedded it in OCT embedding agent, and cut brain slices at the thickness of […] with a freezing microtome.
# Immunohistochemical staining of TH and Iba-1 was performed on the sections. Sections were rewarmed for 30 min, closed at room temperature for 1 h with 50% serum+0.3% TritonX-100 in 50 μL per slice, shook off the slices, added primary antibody (diluted in PBS), overnight at 4° C.; rewarmed for 30 min; washed off primary antibody (PBS), 5 min×3 times; added secondary antibody (diluted in PBS) by backlighting, room temperature for 2 h; washed off secondary antibody (PBS), 5minx 3 times; added (4′,6-diamidino-2-phenylindole) (DAPI), and stayed at room temperature for 10 min; washed off DAPI, 5 min×3 times; added 70% glycerol to seal the slices to avoid air bubbles. Observed and took pictures under a microscope. Selected basically the same target brain area for each slice. Afterwards, ImageJ was used to count the signal number or area of the entire slice.
# Experimental Methods: Seventy 180-220g SD male rats were selected and fed for one week for accumulation, and the PD model was established by stereotactic unilateral injection of 6-OHDA in the Substantia Nigra (SN) and Striatum (Str) regions and were randomly divided into five groups according to their body weights including Madopar group (Madopar, 50 mg/kg), BTUDC-L group (BTUDC, 100 mg/kg), BTUDC-M group (BTUDC, 500 mg/kg), and BTUDC-H group (BTUDC, 1000 mg/kg), with 10 animals in each group. Another 10 SD male rats were taken for sham operation (only 4 μL of 0.9% NS containing 0.02% ascorbic acid was given to the SN and Str brain regions during modeling) as the Sham group. The drug was administered by gavage once daily continuously for 21 days starting on the second day of modeling (first day of dosing, D1). General observation was made during the dosing period. At the end of the administration, the test articles were evaluated for tolerance in this model and in behavioral apomorphine—asymmetric rotation test, beam test, rotarod test and grip strength test, immunofluorescence staining (TH, Ibal), and cerebrospinal fluid inflammatory factor assays to evaluate the pharmacodynamic effects of the test articles. Inflammatory factors tested included interleukin 6 (1L-6), inflammatory factor […], Tumor Necrosis Factor alpha (TNF-α), inflammatory assays were done in a total of 4 groups included Sham, Model, Madopar and BTUDC-H groups.
# Dosing volume: 10 mL/kg • 1. General observation: During the period of drug administration, body weight, food intake test and cage side observation were conducted every 3 days. • 2. Behavioral test: After 21 days of administration, behavioral test was carried out on the following day. • 3. […]
# [1] = BTUDC-H 1000 mg/kg p.o. Qd 21 days, p<0.001 vs Model
# [2] = BTUDC-L 100 mg/kg p.o. Qd 21 days, no significance mark
smiles,measurement,setting,value
"COc1ccc2cc3[n+](cc2c1OC)CCc1cc2c(cc1-3)OCO2.C[C@H](CCC(=O)NCCS(=O)(=O)[O-])[C@H]1CC[C@H]2[C@@H]3[C@@H](O)C[C@@H]4C[C@H](O)CC[C@]4(C)[C@H]3CC[C@]12C [BTUDC, Berberine tauroursodeoxycholate]",TH staining SN positive cells num.,[1],12.7 ± 3.1
same,TH staining Str Fluorescence intensity,[1],65.8 ± 4.4
same,TH staining SN positive cells num.,[2],0.7 ± 0.3
same,TH staining Str Fluorescence intensity,[2],19.8 ± 3.5
same,TH staining SN positive cells num.,"BTUDC-M 500 mg/kg p.o. Qd 21 days, no significance mark",2.0 ± 0.6
same,TH staining Str Fluorescence intensity,"BTUDC-M 500 mg/kg p.o. Qd 21 days, p<0.001 vs Model",32.6 ± 5.5
